# Source: US8822505B2, “Azetidine derivatives” (Hoffmann-La Roche Inc., priority 2012, dated 2014)
# Where a name gives a salt, the structure may show the parent alone.
# Assays:
# human Cat L = human Cat L (Homo sapiens (Human), UniProt P07711); assay: Cathepsin enzyme inhibition assay (human Cat L); format: biochemical; conditions: enzyme 1 nM, substrate Z-Val-Val-Arg-AMC 20 μM
# Description: (§1) Cathepsin Enzyme Inhibition Assay
# (§2) Enzyme activity is measured by observing the increase in fluorescence intensity caused by cleavage of a peptide substrate containing a fluorophore whose emission is quenched in the intact peptide.
# (§3) Assay buffer: 100 mM potassium phosphate pH 6.5, EDTA-Na 5 mM, Triton X-100 0.001%, DTT 5 mM.
# (§4) Enzymes (all at 1 nM): human and mouse Cathepsin S, Cat K, Cat B, Cat L.
# (§5) Substrate (20 μM): Z-Val-Val-Arg-AMC, except for Cat K which uses Z-Leu-Arg-AMC (both from Bachem).
# Excitation 360 nm, Emission 465 nm.
# Enzyme is added to the substance dilutions in 96-well microtitre plates and the reaction is started with substrate. Fluorescence emission is measured over 20 minutes, during which time a linear increase is observed in the absence of inhibitor. IC50 are calculated by standard methods.
# Inhibition of human Cat S, mouse Cat S, human Cat K, human Cat B, human Cat L and mouse Cat L have been measured separately. The results obtained for human Cat S and L for representative compounds of the invention are expressed in the following table in μM.
# human Cat S = human Cat S (Homo sapiens (Human), UniProt P25774); assay: Cathepsin enzyme inhibition assay (human Cat S); format: biochemical; conditions: enzyme 1 nM, substrate Z-Val-Val-Arg-AMC 20 μM
# Description: as §1, §2, §3, §4, §5
# Enzyme is added to the substance dilutions in 96-well microtitre plates and the reaction is started with substrate. […] IC50 are calculated by standard methods.
# Inhibition of human Cat S, mouse Cat S, human Cat K, human Cat B, human Cat L and mouse Cat L have been measured separately.
# Sequence of human Cat S (P25774 115-331): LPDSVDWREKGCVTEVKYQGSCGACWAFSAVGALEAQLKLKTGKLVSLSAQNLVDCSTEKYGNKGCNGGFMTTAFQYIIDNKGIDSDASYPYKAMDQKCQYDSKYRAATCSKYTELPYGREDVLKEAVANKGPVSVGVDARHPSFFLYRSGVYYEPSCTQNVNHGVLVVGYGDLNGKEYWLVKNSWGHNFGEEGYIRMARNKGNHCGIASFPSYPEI
# Sequence of human Cat L (P07711 114-333): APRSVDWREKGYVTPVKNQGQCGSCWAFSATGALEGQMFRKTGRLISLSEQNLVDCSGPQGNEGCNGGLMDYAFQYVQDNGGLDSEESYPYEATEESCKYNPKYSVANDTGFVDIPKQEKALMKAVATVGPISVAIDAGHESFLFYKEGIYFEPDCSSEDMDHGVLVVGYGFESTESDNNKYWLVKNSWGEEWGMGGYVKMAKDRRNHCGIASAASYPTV
SMILES,IC50 (human Cat L; pH 6.5),"IC50 (human Cat S; pH 6.5, hydrochloride)","IC50 (human Cat L; pH 6.5, hydrochloride)",IC50 (human Cat S; pH 6.5)
"N#CC1(NC(=O)[C@@H]2C[C@@H](S(=O)(=O)c3ccccc3Cl)CN2C(=O)C2(c3ncc(Br)cc3F)CNC2)CC1 [Example 13, (2S,4R)-1-[3-(5-Bromo-3-fluoro-pyridin-2-yl)-azetidine-3-carbonyl]-4-(2-chloro-benzenesulfonyl)-pyrrolidine-2-carboxylic acid (1-cyano-cyclopropyl)-amide]",4.6 nM,,,1.09 nM
"CC(C)(C)OC(=O)N1CC(C(=O)N2C[C@H](S(=O)(=O)c3ccccc3Cl)C[C@H]2C(=O)NC2(C#N)CC2)(c2ncc(Br)cc2F)C1 [Example 11, tert-Butyl 3-(5-bromo-3-fluoropyridin-2-yl)-3-((2S,4R)-4-(2-chlorophenylsulfonyl)-2-(1-cyanocyclopropylcarbamoyl)pyrrolidine-1-carbonyl)azetidine-1-carboxylate]",70.5 nM,,,1.27 nM
"CC(C)(C)OC(=O)N1CCC1(C(=O)N1C[C@H](S(=O)(=O)c2ccc(F)cc2Cl)C[C@H]1C(=O)NC1(C#N)CC1)c1ncc(Br)cc1F (stereo partly drawn) [Example 22, 2-(5-Bromo-3-fluoro-pyridin-2-yl)-2-[(2S,4R)-4-(2-chloro-4-fluoro-benzenesulfonyl)-2-(1-cyano-cyclopropylcarbamoyl)-pyrrolidine-1-carbonyl]-azetidine-1-carboxylic acid tert-butyl ester]",1020 nM,,,1.26 nM
"Cn1cc(-c2ccc(S(=O)(=O)[C@@H]3C[C@@H](C(=O)NC4(C#N)CC4)N(C(=O)C4(c5ncc(Br)cc5F)CCN4)C3)c(Cl)c2)cn1 (stereo partly drawn) [Example 48, (2S,4R)-1-[2-(5-Bromo-3-fluoro-pyridin-2-yl)-azetidine-2-carbonyl]-4-[2-chloro-4-(1-methyl-1H-pyrazol-4-yl)-benzenesulfonyl]-pyrrolidine-2-carboxylic acid (1-cyano-cyclopropyl)-amide hydrochloride]",98.9 nM,,,1.85 nM
"N#CC1(NC(=O)[C@@H]2C[C@@H](S(=O)(=O)c3ccc(OCC(F)(F)F)cc3Cl)CN2C(=O)C2(c3ncc(Cl)cc3F)CNC2)CC1 [Example 20, (2S,4R)-1-(3-(5-Chloro-3-fluoropyridin-2-yl)azetidine-3-carbonyl)-4-(2-chloro-4-(2,2,2-trifluoroethoxy)phenylsulfonyl)-N-(1-cyanocyclopropyl)pyrrolidine-2-carboxamide]",78.2 nM,,,2.92 nM
"CC(C)(C)OC(=O)N1CCC1(C(=O)N1C[C@H](S(=O)(=O)c2ccc(F)cc2Cl)C[C@H]1C(=O)NC1(C#N)CC1)c1ncc(Cl)cc1F (stereo partly drawn) [Example 23, 2-[(2S,4R)-4-(2-Chloro-4-fluoro-benzenesulfonyl)-2-(1-cyano-cyclopropylcarbamoyl)-pyrrolidine-1-carbonyl]-2-(5-chloro-3-fluoro-pyridin-2-yl)-azetidine-1-carboxylic acid tert-butyl ester]",2010 nM,,,0.377 nM
"CC(C)(C)OC(=O)N1CC(C(=O)N2C[C@H](S(=O)(=O)c3ccc(OCC(F)(F)F)cc3Cl)C[C@H]2C(=O)NC2(C#N)CC2)(c2ccc(Br)cn2)C1 [Example 5, 3-(5-Bromo-pyridin-2-yl)-3-[(2S,4R)-4-[2-chloro-4-(2,2,2-trifluoro-ethoxy)-benzenesulfonyl]-2-(1-cyano-cyclopropylcarbamoyl)-pyrrolidine-1-carbonyl]-azetidine-1-carboxylic acid tert-butyl ester]",753 nM,,,3.69 nM

# Next, values leading:
IC50 (human Cat L; pH 6.5),"IC50 (human Cat S; pH 6.5, hydrochloride)","IC50 (human Cat L; pH 6.5, hydrochloride)",IC50 (human Cat S; pH 6.5),SMILES
528 nM,,,,"C[C@H](Oc1ccc(S(=O)(=O)[C@@H]2C[C@@H](C(=O)NC3(C#N)CC3)N(C(=O)C3(c4ncc(Cl)cc4F)CCN3C(=O)OC(C)(C)C)C2)c(Cl)c1)C(F)(F)F (stereo partly drawn) [Example 27, tert-butyl 2-(5-chloro-3-fluoropyridin-2-yl)-2-((2S,4R)-4-(2-chloro-4-((S)-1,1,1-trifluoropropan-2-yloxy)phenylsulfonyl)-2-(1-cyanocyclopropylcarbamoyl)pyrrolidine-1-carbonyl)azetidine-1-carboxylate]"
12.5 nM,,,,"CN1CC(C(=O)N2C[C@H](S(=O)(=O)c3ccccc3Cl)C[C@H]2C(=O)NC2(C#N)CC2)(c2ncc(Br)cc2F)C1 [Example 14, (2S,4R)-1-[3-(5-Bromo-3-fluoro-pyridin-2-yl)-1-methyl-azetidine-3-carbonyl]-4-(2-chloro-benzenesulfonyl)-pyrrolidine-2-carboxylic acid (1-cyano-cyclopropyl)-amide]"
,3.83 nM,58.5 nM,,"C[C@H](Oc1ccc(S(=O)(=O)[C@@H]2C[C@@H](C(=O)NC3(C#N)CC3)N(C(=O)C3(c4ncc(Cl)cc4F)CCN3)C2)c(Cl)c1)C(F)(F)F (stereo partly drawn) [Example 37, (2S,4R)-1-[2-(5-Chloro-3-fluoro-pyridin-2-yl)-azetidine-2-carbonyl]-4-[2-chloro-4-((S)-2,2,2-trifluoro-1-methyl-ethoxy)-benzenesulfonyl]-pyrrolidine-2-carboxylic acid (1-cyano-cyclopropyl)-amide hydrochloride]"
14.2 nM,,,3.48 nM,"C[C@H](Oc1ccc(S(=O)(=O)[C@@H]2C[C@@H](C(=O)NC3(C#N)CC3)N(C(=O)C3(c4ncc(Br)cc4F)CNC3)C2)c(Cl)c1)C(F)(F)F [Example 34, (2S,4R)-1-[3-(5-Bromo-3-fluoro-pyridin-2-yl)-azetidine-3-carbonyl]-4-[2-chloro-4-((S)-2,2,2-trifluoro-1-methyl-ethoxy)-benzenesulfonyl]-pyrrolidine-2-carboxylic acid (1-cyano-cyclopropyl)-amide]"
1070 nM,,,3.22 nM,"COc1ccc(S(=O)(=O)[C@@H]2C[C@@H](C(=O)NC3(C#N)CC3)N(C(=O)C3(c4ccc(Cl)cn4)CN(C(=O)OC(C)(C)C)C3)C2)c(Cl)c1 [Example 1, 3-[(2S,4R)-4-(2-Chloro-4-methoxy-benzenesulfonyl)-2-(1-cyano-cyclopropylcarbamoyl)-pyrrolidine-1-carbonyl]-3-(5-chloro-pyridin-2-yl)-azetidine-1-carboxylic acid tert-butyl ester]"
556 nM,,,,"C[C@H](Oc1ccc(S(=O)(=O)[C@@H]2C[C@@H](C(=O)NC3(C#N)CC3)N(C(=O)C3(c4ncc(Cl)cc4F)CCN3C(=O)OC(C)(C)C)C2)c(Cl)c1)C(F)(F)F (stereo partly drawn) [Example 28, tert-butyl 2-(5-chloro-3-fluoropyridin-2-yl)-2-((2S,4R)-4-(2-chloro-4-((S)-1,1,1-trifluoropropan-2-yloxy)phenylsulfonyl)-2-(1-cyanocyclopropylcarbamoyl)pyrrolidine-1-carbonyl)azetidine-1-carboxylate]"
1060 nM,,,2.22 nM,"C[C@H](Oc1ccc(S(=O)(=O)[C@@H]2C[C@@H](C(=O)NC3(C#N)CC3)N(C(=O)C3(c4ncc(Br)cc4F)CCN3C(=O)OC(C)(C)C)C2)c(Cl)c1)C(F)(F)F (stereo partly drawn) [Example 30, 2-(5-Bromo-3-fluoro-pyridin-2-yl)-2-[(2S,4R)-4-[2-chloro-4-((S)-2,2,2-trifluoro-1-methyl-ethoxy)-benzenesulfonyl]-2-(1-cyano-cyclopropylcarbamoyl)-pyrrolidine-1-carbonyl]-azetidine-1-carboxylic acid tert-butyl ester]"
89.8 nM,,,,"N#CC1(NC(=O)[C@@H]2C[C@@H](S(=O)(=O)c3ccc(OCC(F)(F)F)cc3Cl)CN2C(=O)C2(c3ccc(Cl)cn3)CNC2)CC1 [Example 6, (2S,4R)-1-[3-(5-Chloro-pyridin-2-yl)-azetidine-3-carbonyl]-4-[2-chloro-4-(2,2,2-trifluoro-ethoxy)-benzenesulfonyl]-pyrrolidine-2-carboxylic acid (1-cyano-cyclopropyl)-amide]"
